Assay results from PubChem BioAssay (NCI).
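Growth conditions: 96-well plates. Treatment: test compound, 48 hours, 5 concentrations. Analysis: linear interpolation between bracketing concentrations; unreached endpoints set to highest concentration. The concentration for 50% growth inhibition is given as GI50. TGI: concentration producing complete growth inhibition.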

Assays:
Assay in all cases: NCI tumour cell line growth inhibition, 48 h
DLD-1 colon = test system: DLD-1 colon
DMS 114 small cell lung = test system: DMS 114 small cell lung
DMS 273 small cell lung = test system: DMS 273 small cell lung
HOP-18 NSCLC = test system: HOP-18 NSCLC
K-562 leukemia = test system: K-562 leukemia
KM20L2 colon = test system: KM20L2 colon
M19-MEL melanoma = test system: M19-MEL melanoma
NCI/ADR-RES ovarian = test system: NCI/ADR-RES ovarian
OVCAR-8 ovarian = test system: OVCAR-8 ovarian
P388 leukemia = test system: P388 leukemia
P388/ADR leukemia = test system: P388/ADR leukemia
SN12K1 renal = test system: SN12K1 renal
SNB-19 CNS = test system: SNB-19 CNS
SNB-78 CNS = test system: SNB-78 CNS
XF 498 CNS = test system: XF 498 CNS
LXFL 529 NSCLC = test system: LXFL 529 NSCLC

Structure (SMILES)	TGI (K-562 leukemia)	TGI (NCI/ADR-RES ovarian)	TGI (OVCAR-8 ovarian)	TGI (SNB-19 CNS)	further results
CCOC(=O)c1c[nH]c2ccc3c(c2c1=O)S(=O)(=O)CC3 (tested in a mixture with another compound)	> 100 µM	> 100 µM	> 100 µM	> 100 µM	TGI (DLD-1 colon): > 100 µM; TGI (DMS 114 small cell lung): > 100 µM; TGI (DMS 273 small cell lung): > 100 µM; TGI (HOP-18 NSCLC): > 100 µM; TGI (KM20L2 colon): > 100 µM; TGI (M19-MEL melanoma): > 100 µM; TGI (P388 leukemia): > 100 µM; TGI (P388/ADR leukemia): > 100 µM; TGI (SN12K1 renal): > 100 µM; TGI (SNB-78 CNS): > 100 µM; TGI (XF 498 CNS): > 100 µM
CCCCCCCCCCCC[N+](CCCCCCCCCCCC)=C1SCCS1	–	–	8.33 µM	–	TGI (DLD-1 colon): 21.2 µM; TGI (DMS 114 small cell lung): 3.58 µM; TGI (DMS 273 small cell lung): 11.4 µM; TGI (HOP-18 NSCLC): 30 µM; TGI (KM20L2 colon): 18.4 µM; TGI (LXFL 529 NSCLC): 14 µM; TGI (M19-MEL melanoma): 8.43 µM; TGI (SNB-78 CNS): 14.6 µM
CC(C)(CCC(C)(C)N1OC1c1ccccc1)N1OC1c1ccccc1 (centres undefined)	37.7 µM	> 100 µM	> 100 µM	> 100 µM	–
CCc1ccc2c(c1)N(CC(C)CN(C)C)c1ccccc1S2 (centres undefined)	3.5 µM	17.8 µM	21.8 µM	23 µM	–
O=C1CCCC/C1=C\c1ccc(Cl)c(Cl)c1	48 µM	–	78 µM	74.3 µM	TGI (DLD-1 colon): 61.6 µM; TGI (DMS 114 small cell lung): 41.1 µM; TGI (DMS 273 small cell lung): 38.5 µM; TGI (HOP-18 NSCLC): 51.7 µM; TGI (KM20L2 colon): 40.9 µM; TGI (LXFL 529 NSCLC): 31.2 µM; TGI (M19-MEL melanoma): 40.3 µM; TGI (SNB-78 CNS): 52.7 µM
COc1cccc(/N=N/C(=NNC(=O)c2ccc(C)cc2)c2ccc(N(C)C)cc2)c1	> 100 µM	> 100 µM	> 100 µM	> 100 µM	–
O=[N+]([O-])c1ccc(C(O)(C#CCN2CCCC2)c2ccccc2)cc1 (centres undefined)	42.6 µM	> 100 µM	> 100 µM	> 100 µM	–
CCCc1[nH]c2ccccc2c1-c1c(CCC)[nH]c2ccccc12	> 100 µM	51.8 µM	11.2 µM	29.3 µM	–
O=C1NC2CCCCCC2C12CCCCC2 (centres undefined)	> 100 µM	–	–	> 100 µM	TGI (DLD-1 colon): > 100 µM; TGI (DMS 114 small cell lung): > 100 µM; TGI (KM20L2 colon): > 100 µM; TGI (LXFL 529 NSCLC): > 100 µM; TGI (M19-MEL melanoma): > 100 µM; TGI (SNB-78 CNS): > 100 µM; TGI (XF 498 CNS): > 100 µM
CC(=O)O[C@H]1CC[C@@]2(C)C(=CC[C@@H]3[C@@H]2CC[C@]2(C)c4nc(Cl)ccc4C[C@@H]32)C1	> 100 µM	> 100 µM	> 100 µM	> 100 µM	–
CSc1c(C#N)c(N)n(-c2ccc(Cl)cc2)c(=O)c1C#N	> 100 µM	> 100 µM	> 100 µM	> 100 µM	–
COc1cc(O)c2c(=O)c(OC)c(-c3ccc(OC)c(OC)c3)oc2c1	> 100 µM	> 100 µM	> 100 µM	> 100 µM	GI50 (K-562 leukemia): > 100 µM; GI50 (NCI/ADR-RES ovarian): 62.7 µM; GI50 (OVCAR-8 ovarian): > 100 µM; GI50 (SNB-19 CNS): > 100 µM
O=c1[nH]c(Nc2nc3ccccc3[nH]2)nc(O)c1Cc1ccccc1	> 100 µM	> 100 µM	> 100 µM	> 100 µM	–
CN(C)CCNC(=O)c1cccc2c(NC(CCC(N)=O)C(=O)O)c3ccccc3nc12 (centres undefined)	> 100 µM	> 100 µM	> 100 µM	15.5 µM	–
O=c1[nH]c2nc3ccccc3c(=O)n2/c1=C/c1ccco1	> 100 µM	> 100 µM	> 100 µM	> 100 µM	–
Clc1ccc2oc(CCc3ccccc3)nc2c1	> 100 µM	> 100 µM	> 100 µM	> 100 µM	–
N#C/C(C(=S)NCc1ccccc1)=C(/N)N1CCCC1	> 100 µM	> 100 µM	> 100 µM	> 100 µM	–
c1ccc(CC2COC(c3cccs3)=N2)cc1 (centres undefined)	> 100 µM	> 100 µM	> 100 µM	> 100 µM	–
